In US11298363B2, “Triazolobenzazepines as vasopressin V1a receptor antagonists” (RICHTER GEDEON NYRT., priority 2017, dated 2022):
Where a name gives a salt, the structure may show the parent alone.

Legend:
[1] = biological target: T1, human vasopressin V1a receptor (Homo sapiens, UniProt P37288); assay: Functional assay on human vasopressin V1a receptor expressing cell line (intracellular Ca2+ fluorescence); type: cell-based; conditions: 1321N1 cells, (Arg8)-vasopressin at EC80; read-out: IC50 (nM) on hV1a cell line
Description: Functional Assay to Test Compounds on Human Vasopressin V1a Receptor Expressing Cell Line
The ordinary secondary messenger pathway of the measured GPCR receptor was used, the endogenous Gq-associated system.
Using 30,000 cells/plate, compounds were measured on 96-well plates. The buffer composition of the measurements was the following (expressed in mM): 140 NaCl, 5 KCl, 2 CaCl2), 2 MgCl2, 10 glucose, 10 HEPES (4-(2-hydroxyethyl)-1-piperazine-ethanesulfonic acid), 2 probenecid, pH=7.4. FLIPR Calcium 5 kit (Molecular Devices) was used as fluorescent dye, the medium was not removed prior to filling with the dye and the cells were not washed out either before or after. The incubation was performed at room temperature, the final concentration of DMSO was 1%. The materials to be measured were administered in 15 to 20 minutes pretreatment, at least two parallels of each compound in each concentration was measured.
Fluorescence signal was used to determine the intracellular Ca^2+ level, the reader was FlexStation II96. […] The fluorescence signal was logged in every 1.4 seconds for 1 minute. The reference compounds used were the following: (Arg^8)-vasopressin as agonist at concentration of EC80, determined for each plate, and relcovaptan as antagonist at 1 μM. The % of inhibition at each concentration and the IC50 value of the compounds were determined where a concentration line was also measured.
The total AVP concentration-response curve was recorded on each plate. The effect of compounds measured was expressed by percentage of relative inhibition compared to control response. […] The average IC50 values were calculated from at least three independent measurements in all cases.

[2] = biological target: T1, human vasopressin V1a receptor; assay: Human vasopressin V1a receptor binding assay; conditions: 1321N1 cell membranes, [3H]vasopressin; read-out: Ki (nM) on hV1a cell line
Description: Human Vasopressin V1a Receptor Binding Assay
Cells were suspended in preparative buffer (50 mM Tris, 1 mM EDTA, 0.1 mM PMSF) and homogenized with glass homogenizing potter. To separate the raw membrane fraction two consecutive centrifugation procedures (40,000 g for 20 minutes at 4° C.) were executed, then the membrane was taken into the preparatory buffer during a final washing step, it was divided into aliquots which were stored at −80° C. until the time of measurement.
To determine the final affinity value, the results of at least two independent experiments were taken into account.
Non-specific binding values were determined in the presence of unlabeled 1.2×10^−6 M (Arg^8)-vasopressin. Samples were incubated in a total volume of 0.33 ml for 60 minutes at 27° C. Membrane-bound and free ligands were separated by filtration through a 0.5% polyethyleneimine-impregnated UniFilter® GF/B™. After drying the filter plates, 40 μl Microscint-20 (Packard) scintillation cocktail was added to the samples. Finally, radioactivity was measured using MicroBeta^2 Microplate Counter (Perkin Elmer).
During fitting, the asymptotes are not fixed. The K values (inhibition constant) are given with Cheng-Prusoff equation Ki=IC50/[1+(L/KD)] wherein [L] is the radioligand concentration used in the experiment and [KD] is the affinity of the radioactively labelled ligand for the given receptor. The KD is determined beforehand using the Scatchard curve.

T1 sequence (P37288 whole entry): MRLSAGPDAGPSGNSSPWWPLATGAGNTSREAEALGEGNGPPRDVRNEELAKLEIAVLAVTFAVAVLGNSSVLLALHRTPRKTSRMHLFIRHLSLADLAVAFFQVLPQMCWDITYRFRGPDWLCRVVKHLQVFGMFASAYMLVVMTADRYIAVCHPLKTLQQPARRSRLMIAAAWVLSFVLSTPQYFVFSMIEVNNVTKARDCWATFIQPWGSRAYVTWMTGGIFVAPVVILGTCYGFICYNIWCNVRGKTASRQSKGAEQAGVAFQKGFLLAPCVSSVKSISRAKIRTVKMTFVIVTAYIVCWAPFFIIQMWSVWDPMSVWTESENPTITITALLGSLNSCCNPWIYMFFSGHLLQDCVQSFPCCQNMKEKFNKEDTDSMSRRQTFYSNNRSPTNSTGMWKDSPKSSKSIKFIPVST

Row | IC50 [1] | Ki [2] | Compound
1 | 23 nM | 2.2 nM | Clc1ccc2c(c1)C[C@H](NCC1CC1)Cc1nnc([C@H]3CC[C@H](Oc4ccccn4)CC3)n1-2 [Example 199]
2 | 8.1 nM | 1.6 nM | COC1Cc2cc(Cl)ccc2-n2c(nnc2[C@H]2CC[C@@](OC)(C(F)(F)F)CC2)C1 (stereo partly drawn) [Example 223, 8-chloro-5-methoxy-1-[trans-4-methoxy-4-(trifluoromethyl)cyclohexyl]-5,6-dihydro-4H-[1,2,4]triazolo[4,3-a][1]benzazepine]
3 | 25 nM | 0.6 nM | COC1Cc2cc(Cl)ccc2-n2c(nnc2C2CCN(Cc3cccnc3)C2)C1 (stereo not drawn) [Example 184, 8-chloro-5-methoxy-1-[1-(pyridin-3-ylmethyl)pyrrolidin-3-yl]-5,6-dihydro-4H-[1,2,4]triazolo[4,3-a][1]benzazepine]
4 | 8.2 nM | 0.7 nM | Clc1ccc2c(c1)CC1(Cc3nnc([C@H]4CCN(Cc5ccccn5)C4)n3-2)OCCO1 [Example 252, 8′-chloro-1′-[(3S)-1-(pyridin-2-ylmethyl)pyrrolidin-3-yl]-4′H,6′H-spiro[1,3-dioxolane-2,5′-[1,2,4]triazolo[4,3-a][1]benzazepine]]
5 | 229 nM | 10 nM | COC1Cc2cc(Cl)ccc2-n2c(nnc2C2CCN(C(=O)c3ccccn3)C2)C1 (stereo not drawn) [Example 189, [3-(8-chloro-5-methoxy-5,6-dihydro-4H-[1,2,4]triazolo[4,3-a][1]benzazepin-1-yl)pyrrolidin-1-yl](pyridin-2-yl)methanone]
6 | 5.6 nM | 1.2 nM | Clc1ccc2c(c1)CC1(Cc3nnc(C4CCN(Cc5ccccn5)C4)n3-2)OCCO1 (stereo not drawn) [Example 239, 8′-chloro-1′-[1-(pyridin-2-ylmethyl)pyrrolidin-3-yl]-4′H,6′H-spiro[1,3-dioxolane-2,5′-[1,2,4]triazolo[4,3-a][1]benzazepine]]
7 | 1.1 nM | 0.4 nM | CO[C@@H]1Cc2cc(F)ccc2-n2c(nnc2[C@H]2CC[C@H](Oc3ccccn3)CC2)C1 (single isomer, unassigned) [Example 176]
8 | 5.3 nM | 0.5 nM | Clc1ccc2c(c1)CC1(Cc3nnc(C4CCN([C@@H]5CCOC5)CC4)n3-2)OCCO1 [Example 188, 8′-chloro-1′-{1-[(3R)tetrahydrofuran-3-yl]piperidin-4-yl}-4′H,6′H-spiro[1,3-dioxolane-2,5′-[1,2,4]triazolo[4,3-a][1]benzazepine]]
9 | 1.4 nM | 0.2 nM | CN(C)CCC(=O)N[C@@H]1Cc2cc(Cl)ccc2-n2c(nnc2[C@H]2CC[C@H](Oc3ccccn3)CC2)C1 [Example 179, N-{(5R)-8-chloro-1-[trans-4-(pyridin-2-yloxy)cyclohexyl]-5,6-dihydro-4H-[1,2,4]triazolo[4,3-a][1]benzazepin-5-yl}-N^3,N^3-dimethyl-β-alaninamide]
10 | 152 nM | 18.5 nM | COC1Cc2cc(Cl)ccc2-n2c(nnc2[C@H]2CCN(Cc3cccnc3)C2)C1 (stereo partly drawn) [Example 251, 8-chloro-5-methoxy-1-[(3S)-1-(pyridin-3-ylmethyl)pyrrolidin-3-yl]-5,6-dihydro-4H-[1,2,4]triazolo[4,3-a][1]benzazepine]
11 | 1.2 nM | 0.4 nM | N#CCC(=O)N[C@@H]1Cc2cc(Cl)ccc2-n2c(nnc2[C@H]2CC[C@H](Oc3ccccn3)CC2)C1 [Example 186, N-(5R)-8-chloro-1-[trans-4-(pyridin-2-yloxy)cyclohexyl]-5,6-dihydro-4H-[1,2,4]triazolo[4,3-a][1]benzazepin-5-yl-2-cyanoacetamide]

Second part, the compound before the results:

Row | Compound | IC50 [1] | Ki [2]
12 | O=C([C@H]1CC[C@H](c2nnc3n2-c2ccc(Cl)cc2CC2(C3)OCCO2)CC1)N1CCCC1 [Example 70, [Trans-4-(8′-chloro-4′H,6′H-spiro[1,3-dioxolane-2,5′-[1,2,4]triazolo[4,3-a][1]benzazepine]-1′-yl)cyclohexyl](pyrrolidin-1-yl)methanone] | 1.2 nM | 0.4 nM
13 | OC1Cc2cc(Cl)ccc2-n2c(nnc2N2CCC3(CC2)OCc2ccccc23)C1 (stereo not drawn) [Example 172, 8-chloro-1-(1′H,3H-spiro[2-benzofuran-1,4′-piperidin]-1′-yl)-5,6-dihydro-4H-[1,2,4]triazolo[4,3-a][1]benzazepin-5-ol] | 5.6 nM | 0.7 nM
14 | COC1Cc2cc(Cl)ccc2-n2c(nnc2C2CCN([C@H]3CCOC3)CC2)C1 (stereo partly drawn) [Example 175, 8-chloro-5-methoxy-1-{1-[(3S)-tetrahydrofuran-3-yl]piperidin-4-yl}-5,6-dihydro-4H-[1,2,4]triazolo[4,3-a][1]benzazepine] | 323 nM | 50.5 nM
15 | COC1Cc2cc(Cl)ccc2-n2c(nnc2C2CCN(C3CCOCC3)CC2)C1 (stereo not drawn) [Example 170, 8-chloro-5-methoxy-1-[1-(tetrahydro-2H-pyran-4-yl)piperidin-4-yl]-5,6-dihydro-4H-[1,2,4]triazolo[4,3-a][1]benzazepine] | 38 nM | 15.3 nM
16 | CC(C)C(=O)N[C@H]1Cc2cc(Cl)ccc2-n2c(nnc2[C@H]2CC[C@H](Oc3ccccn3)CC2)C1 [Example 120, N-{(5S)-8-chloro-1-[trans-4-(pyridin-2-yloxy)cyclohexyl]-5,6-dihydro-4H-[1,2,4]triazolo[4,3-a][1]benzazepin-5-yl}-2-methylpropanamide] | 465 nM | 52 nM
17 | CCN(CC)[C@H]1Cc2cc(Cl)ccc2-n2c(nnc2[C@H]2CC[C@H](Oc3ccccn3)CC2)C1 [Example 137, (5S)-8-chloro-N,N-diethyl-1-[trans-4-(pyridin-2-yloxy)cyclohexyl]-5,6-dihydro-4H-[1,2,4]triazolo[4,3-a][1]benzazepin-5-amine] | 9.2 nM | 0.7 nM
18 | COc1ccc2c(c1)CC(NC(C)C)Cc1nnc([C@H]3CC[C@H](Oc4ccccn4)CC3)n1-2 (stereo partly drawn) [Example 32, 8-methoxy-N-(propan-2-yl)-1-[trans-4-(pyridin-2-yloxy)cyclohexyl]-5,6-dihydro-4H-[1,2,4]triazolo[4,3-a][1]benzazepine-5-amine] | 85 nM | 6 nM
19 | Clc1ccc2c(c1)CC1(Cc3nnc(N4CCC(N5CCCCC5)CC4)n3-2)OCCO1 [Example 94, 1′-(1,4′-bipiperidin-1′-yl)-8′-chloro-4′H,6′H-spiro[1,3-dioxolane-2,5′-[1,2,4]triazolo[4,3-a][1]benzazepine]] | 23 nM | 2 nM
20 | O=C1Cc2cc(F)ccc2-n2c(nnc2[C@H]2CC[C@H](Oc3ccccn3)CC2)C1 [Example 110, 8-fluoro-1-[trans-4-(pyridin-2-yloxy)cyclohexyl]-4H-[1,2,4]triazolo[4,3-a][1]benzazepin-5(6H)-one] | 8.3 nM | 2.1 nM
21 | O=C(N[C@H]1Cc2cc(Cl)ccc2-n2c(nnc2[C@H]2CC[C@H](Oc3ccccn3)CC2)C1)C1CC1 [Example 119, N-{(5S)-8-chloro-1-[trans-4-(pyridin-2-yloxy)cyclohexyl]-5,6-dihydro-4H-[1,2,4]triazolo[4,3-a][1]benzazepin-5-yl}cyclopropanecarboxamide] | 111 nM | 27 nM
22 | OC1Cc2cc(Br)ccc2-n2c(nnc2[C@H]2CC[C@H](C(F)(F)F)CC2)C1 (stereo partly drawn) [Example 93] | 16 nM | 3.2 nM
23 | CC(C)(C)OC(=O)NC1Cc2cc(C(F)(F)F)ccc2-n2c(nnc2[C@H]2CC[C@H](Oc3ccccn3)CC2)C1 (stereo partly drawn) [Example 33, Tert-butyl {1-[trans-4-(pyridin-2-yloxy)cyclohexyl]-8-(trifluoromethyl)-5,6-dihydro-4H-[1,2,4]triazolo[4,3-a][1]benzazepin-5-yl}carbamate] | 480 nM | 111 nM
24 | NC1Cc2cc(C(F)(F)F)ccc2-n2c(nnc2[C@H]2CC[C@H](Oc3ccccn3)CC2)C1 (stereo partly drawn) [Example 34, 1-[trans-4-(pyridin-2-yloxy)cyclohexyl]-8-(trifluoromethyl)-5,6-dihydro-4H-[1,2,4]triazolo[4,3-a][1]benzazepine-5-amine hydrochloride] | 700 nM | 52 nM
